From paper PMC12892976, “Alkylation-based optimization of antifungal FPPS inhibitors yields a potent, broad-spectrum lipophilic zoledronate derivative” (mBio, 2025)
Read-outs that look alike come from different tables or passages of the source.

Legend:
Saccharomyces cerevisiae [1] = assay: checkerboard drug interaction (FICI, MICc); type: cell-based; parameters: INH MICc / INH MICc (ITR:INH) / INH MICc (KET:INH) / INH MICc (FLC:INH): unit not given beside the values;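 also: simplified diagonal checkerboard screen pairing antifungals with FPPS inhibitors, FICI calculated under the Loewe additivity model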
Aspergillus fumigatus [2] = assay: MIC/MFC broth microdilution (CLSI); conditions: ATCC204305
Experimental: (§1) Antifungal susceptibility was determined by broth microdilution according to the CLSI guidelines described in M27-Ed4 ([16]). […] MFC was determined by back-plating drug-treated cultures from MIC broths onto SDA plates. The MFC was defined as the lowest concentration from which no colonies could be cultured.

Trichophyton rubrum [3] = assay: MIC/MFC broth microdilution (CLSI); conditions: Trichophyton rubrum
Experimental: as §1

Aspergillus flavus [4] = assay: checkerboard drug interaction (FICI, MICc);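 also: simplified diagonal checkerboard screen pairing azole antifungals with FPPS inhibitors, FICI calculated under the Loewe additivity model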; type: cell-based; parameters: INH MICc (KET:INH) / INH MICc (FLC:INH): unit not given beside the values; conditions: A. flavus
Candida glabrata [5] = assay: MIC/MFC broth microdilution (CLSI); conditions: Nakaseomyces glabratus, CBS138;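 also: broth microdilution following CLSI M27-Ed4, MFC taken as the lowest drug level yielding no growth once MIC wells were subcultured on SDA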
Experimental: as §1

HEK-293T cells = assay: MTT reduction cytotoxicity assay; type: cell-based; conditions: Homo sapiens, HEK-293T, 72 h, MTT, 72 h
Aspergillus fumigatus [6] = assay: checkerboard drug interaction (FICI, MICc); type: cell-based;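 also: simplified diagonal checkerboard screen pairing antifungals with FPPS inhibitors against Aspergillus fumigatus, with FICI calculated under the Loewe additivity model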
Experimental: (§2) Drug interactions between antifungals and FPPS inhibitors were investigated using a simplified checkerboard diagonal screening method ([45]). […] FICIs were determined according to the Loewe additivity model ([17]).

Cryptococcus neoformans [7] = assay: checkerboard drug interaction (FICI, MICc);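 as to all read-outs here: antifungal plus FPPS inhibitor pairs tested against Cryptococcus neoformans by simplified diagonal checkerboard screening, FICI computed under the Loewe additivity model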; type: cell-based; conditions: C. neoformans; for INH FD (MIC-MICc fold decrease): fold decrease of inhibitor MIC
Experimental: as §2

Trichophyton rubrum [8] = assay: checkerboard drug interaction (FICI, MICc);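 also: simplified diagonal checkerboard screen pairing azole antifungals with FPPS inhibitors, FICI calculated under the Loewe additivity model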; type: cell-based; conditions: T. rubrum
Experimental: as §2

Candida albicans [9] = assay: checkerboard drug interaction (FICI, MICc);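 as to all read-outs here: antifungal plus FPPS inhibitor combinations on Candida albicans tested by a simplified diagonal checkerboard screen, with FICI calculated under the Loewe additivity model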; type: cell-based; conditions: C. albicans; for INH FD (MIC-MICc fold decrease): fold decrease of inhibitor MIC
Experimental: as §2

eight fungal species [10] = assay: checkerboard interaction with azoles, summary across the eight species; type: cell-based; conditions: geometric mean MIC in combination with azoles
From the text: Synergy between lipophilic FPPS inhibitors and azole antifungals was investigated by determining the fractional inhibitory concentration index (FICI) (Fig. 2; Table S1 Fig. S1) ([17]). […]. Derivatives PLA9 and 11, and PDA9, 11, and 12 antagonized azoles in C. albicans, C. neoformans, and C. deuterogattii, yet were largely synergistic in C. glabrata and S. cerevisiae. […].

[11] = test system: Cryptococcus deuterogattii; assay: MIC/MFC broth microdilution (CLSI); conditions: Cryptococcus deuterogattii;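 also: broth microdilution per CLSI M27-Ed4. MFC is the lowest concentration yielding no colonies when MIC broths are subcultured onto SDA plates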
Experimental: as §1

Candida albicans [12] = assay: MIC/MFC broth microdilution (CLSI); type: cell-based; conditions: Candida albicans SC5314
Experimental: as §1

eight fungal species [13] = assay: MIC/MFC summary across the eight fungal species of Table 1; type: cell-based
Experimental: The antifungal activity of these compounds was evaluated according to CLSI guidelines ([16]).

Saccharomyces cerevisiae [14] = assay: MIC/MFC broth microdilution (CLSI); type: cell-based; conditions: Saccharomyces cerevisiae S288c
Experimental: as §1

[15] = test system: Cryptococcus deuterogattii; assay: checkerboard drug interaction (FICI, MICc);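 as to all read-outs here: simplified diagonal checkerboard screen pairing antifungal drugs with FPPS inhibitors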; type: cell-based; conditions: C. deuterogattii; for INH FD (MIC-MICc fold decrease): fold decrease of inhibitor MIC
Experimental: as §2

Candida glabrata [16] = assay: checkerboard drug interaction (FICI, MICc);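 as to all read-outs here: simplified diagonal checkerboard screen pairing antifungals with FPPS inhibitors, FICI calculated under the Loewe additivity model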; type: cell-based; conditions: C. glabrata; for INH FD (MIC-MICc fold decrease): fold decrease of inhibitor MIC
Experimental: as §2

Cryptococcus neoformans [17] = assay: MIC/MFC broth microdilution (CLSI); conditions: Cryptococcus neoformans;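 also: susceptibility testing followed the CLSI M27-Ed4 broth microdilution document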
Experimental: as §1

Aspergillus flavus [18] = assay: MIC/MFC broth microdilution (CLSI); conditions: ATCC204304
Experimental: as §1

[19] = Fractional Inhibitory Concentration Index, fluconazole + inhibitor
[20] = Fractional Inhibitory Concentration Index, itraconazole + inhibitor
[21] = Fractional Inhibitory Concentration Index, ketoconazole + inhibitor
[22] = MIC of the inhibitor in combination with fluconazole
[23] = MIC of the inhibitor in combination with itraconazole
[24] = MIC of the inhibitor in combination with ketoconazole
[25] = MIC-MICc fold decrease of fluconazole, negative = increase
[26] = MIC-MICc fold decrease of itraconazole, negative = increase
[27] = MIC-MICc fold decrease of ketoconazole, negative = increase
[28] = MIC-MICc fold decrease of the inhibitor, with fluconazole
[29] = MIC-MICc fold decrease of the inhibitor, with itraconazole
[30] = MIC-MICc fold decrease of the inhibitor, with ketoconazole
[31] = FLC:INH combination, MIC of the inhibitor in combination with FLC
[32] = FLC:INH combination, fold decrease of FLC MIC
[33] = ITR:INH combination, MIC of the inhibitor in combination with ITR
[34] = ITR:INH combination, fold decrease of ITR MIC
[35] = KET:INH combination, MIC of the inhibitor in combination with KET
[36] = KET:INH combination, fold decrease of KET MIC

CCCCCCCCCCCN1CCC[C@H]1C(=O)N[C@H](CC(=O)OC)C(=O)OC [dmPDA11]
0.75: FICI (FLC:INH) (Aspergillus flavus [4]; [19]) | FICI (Cryptococcus neoformans [7]; ITR:INH combination)
0.53: FICI (ITR:INH) (Aspergillus fumigatus [6]; [20])
> 128 µg/mL: MIC (Aspergillus fumigatus [2]) | MFC (Trichophyton rubrum [3]) | MFC (Candida albicans [12]) | MIC (Candida albicans [12]) | MFC (Aspergillus flavus [18]) | MIC (Aspergillus flavus [18])
1.01: FICI (ITR:INH) (Aspergillus flavus [4]; [20])
-2: FLC FD (FLC:INH) (Saccharomyces cerevisiae [1]; [25]) | INH FD (KET:INH) (Aspergillus fumigatus [6]; [30]) | KET FD (MIC-MICc fold decrease) (Cryptococcus neoformans [7]; [36]) | INH FD (ITR:INH) (Trichophyton rubrum [8]; [29]) | FLC FD (MIC-MICc fold decrease) (Candida glabrata [16]; [32])
6.19 µg/mL: IC50 (HEK-293T cells; HEK-293T cells, read-out: IC50) | IC50 (HEK-293T cells; read-out: HEK IC50)
2: FICI (ITR:INH) (Saccharomyces cerevisiae [1]; [20]) | INH MICc (ITR:INH) (Aspergillus flavus [4]; [23]) | FLC FD (FLC:INH) (Aspergillus flavus [4]; [25]) | INH MICc (ITR:INH) (Aspergillus fumigatus [6]; [23]) | ITR FD (ITR:INH) (Aspergillus fumigatus [6]; [26]) | INH FD (MIC-MICc fold decrease) (Cryptococcus neoformans [7]; FLC:INH combination) | ITR FD (MIC-MICc fold decrease) (Cryptococcus neoformans [7]; [34]) | FLC FD (FLC:INH) (Trichophyton rubrum [8]; [25]) | FLC FD (MIC-MICc fold decrease) [15, 32] | FICI ([15]; ITR:INH combination) | ITR FD (MIC-MICc fold decrease) (Candida glabrata [16]; [34]) | FICI (Candida glabrata [16]; KET:INH combination)
69.8 µg/mL: MIC (eight fungal species [13]; geometric mean across eight species, read-out: GM fungal MIC) | MIC (eight fungal species [13]; read-out: Geometric mean MIC)
≥4: FICI (FLC:INH) (Saccharomyces cerevisiae [1]; [19]) | FICI (FLC:INH) (Trichophyton rubrum [8]; [19]) | FICI (KET:INH) (Trichophyton rubrum [8]; [21]) | FICI (Candida glabrata [16]; FLC:INH combination)
1.13: FICI ([15]; KET:INH combination)
16 µg/mL: MIC (Trichophyton rubrum [3]) | MIC [11] | MIC (Cryptococcus neoformans [17])
1.06: FICI (Candida albicans [9]; FLC:INH combination) | FICI (Candida albicans [9]; ITR:INH combination) | FICI (Candida albicans [9]; KET:INH combination)
< -4: INH FD (KET:INH) (Trichophyton rubrum [8]; [30])
2.13: FICI (ITR:INH) (Trichophyton rubrum [8]; [20])
1: ITR FD (ITR:INH) (Saccharomyces cerevisiae [1]; [26]) | INH FD (ITR:INH) (Saccharomyces cerevisiae [1]; [29]) | INH FD (KET:INH) (Saccharomyces cerevisiae [1]; [30]) | ITR FD (ITR:INH) (Aspergillus flavus [4]; [26]) | KET FD (KET:INH) (Aspergillus fumigatus [6]; [27]) | INH FD (FLC:INH) (Aspergillus fumigatus [6]; [28]) | FLC FD (MIC-MICc fold decrease) (Cryptococcus neoformans [7]; [32]) | INH FD (MIC-MICc fold decrease) (Cryptococcus neoformans [7]; KET:INH combination) | KET FD (KET:INH) (Trichophyton rubrum [8]; [27]) | FLC FD (MIC-MICc fold decrease) (Candida albicans [9]; [32]) | ITR FD (MIC-MICc fold decrease) (Candida albicans [9]; [34]) | KET FD (MIC-MICc fold decrease) (Candida albicans [9]; [36]) | INH FD (MIC-MICc fold decrease) ([15]; FLC:INH combination) | ITR FD (MIC-MICc fold decrease) [15, 34] | INH FD (MIC-MICc fold decrease) ([15]; ITR:INH combination) | INH FD (MIC-MICc fold decrease) ([15]; KET:INH combination) | INH FD (MIC-MICc fold decrease) (Candida glabrata [16]; FLC:INH combination) | FICI (Candida glabrata [16]; ITR:INH combination) | KET FD (MIC-MICc fold decrease) (Candida glabrata [16]; [36])
128 µg/mL: MFC (Aspergillus fumigatus [2]) | MFC (Candida glabrata [5]) | MIC (Candida glabrata [5]) | MFC [11] | MFC (Saccharomyces cerevisiae [14])
25.4: GM fungal MICc (eight fungal species [10])
32 µg/mL: MFC (Cryptococcus neoformans [17])
256: INH MICc (FLC:INH) (Saccharomyces cerevisiae [1]; [22])
-4: INH FD (FLC:INH) (Saccharomyces cerevisiae [1]; [28]) | INH FD (FLC:INH) (Trichophyton rubrum [8]; [28])
0.31: FICI (KET:INH) (Aspergillus flavus [4]; [21])
128: INH FD (ITR:INH) (Aspergillus flavus [4]; [29]) | INH MICc (KET:INH) (Aspergillus fumigatus [6]; [24]) | INH MICc (KET:INH) (Trichophyton rubrum [8]; [24])
32: INH FD (ITR:INH) (Aspergillus fumigatus [6]; [29]) | INH MICc (Cryptococcus neoformans [7]; [31]) | INH MICc (ITR:INH) (Trichophyton rubrum [8]; [23]) | INH MICc [15, 31] | INH MICc [15, 33] | INH MICc [15, 35] | INH MICc (Candida glabrata [16]; [31])
1.25: FICI (KET:INH) (Saccharomyces cerevisiae [1]; [21]) | FICI (FLC:INH) (Aspergillus fumigatus [6]; [19])
1.5: FICI (Cryptococcus neoformans [7]; FLC:INH combination) | FICI ([15]; FLC:INH combination)
3: FICI (KET:INH) (Aspergillus fumigatus [6]; [21]) | FICI (Cryptococcus neoformans [7]; KET:INH combination)
64: INH MICc (ITR:INH) (Saccharomyces cerevisiae [1]; [23]) | INH MICc (KET:INH) (Saccharomyces cerevisiae [1]; [24]) | INH MICc (FLC:INH) (Aspergillus flavus [4]; [22]) | INH MICc (FLC:INH) (Aspergillus fumigatus [6]; [22]) | INH MICc (Cryptococcus neoformans [7]; [35]) | INH MICc (FLC:INH) (Trichophyton rubrum [8]; [22])
4: KET FD (KET:INH) (Saccharomyces cerevisiae [1]; [27]) | KET FD (KET:INH) (Aspergillus flavus [4]; [27]) | INH FD (FLC:INH) (Aspergillus flavus [4]; [28]) | FLC FD (FLC:INH) (Aspergillus fumigatus [6]; [25]) | INH FD (MIC-MICc fold decrease) (Cryptococcus neoformans [7]; ITR:INH combination) | INH MICc (Candida glabrata [16]; [33]) | INH FD (MIC-MICc fold decrease) (Candida glabrata [16]; KET:INH combination)
16: INH MICc (KET:INH) (Aspergillus flavus [4]; [24]) | INH FD (KET:INH) (Aspergillus flavus [4]; [30]) | INH MICc (Cryptococcus neoformans [7]; [33]) | INH FD (MIC-MICc fold decrease) (Candida albicans [9]; FLC:INH combination) | INH FD (MIC-MICc fold decrease) (Candida albicans [9]; ITR:INH combination) | INH FD (MIC-MICc fold decrease) (Candida albicans [9]; KET:INH combination)
64 µg/mL: MIC (Saccharomyces cerevisiae [14])
140 µg/mL: MFC (eight fungal species [13]; across eight species, read-out: Geometric mean MFC)
8: ITR FD (ITR:INH) (Trichophyton rubrum [8]; [26]) | INH MICc (Candida albicans [9]; [31]) | INH MICc (Candida albicans [9]; [33]) | INH MICc (Candida albicans [9]; [35]) | KET FD (MIC-MICc fold decrease) [15, 36] | INH FD (MIC-MICc fold decrease) (Candida glabrata [16]; ITR:INH combination) | INH MICc (Candida glabrata [16]; [35])
